Data published in ChEMBL document CHEMBL4428032, “Furofuran Lignan Glucosides with Estrogen-Inhibitory Properties from the Bangladeshi Medicinal Plant Terminalia citrina” (2016).
Active and inactive are the calls of the source. The calls are words filed in the database; no cut-off is given here.

Legend:
Leishmania major = assay: Leishmanicidal activity against Leishmania major promastigotes at 100 ug/ml after 48 hrs by MTT assay; type: functional, organism-based
T47D [1] = assay: Estrogen-like activity in human T47D cells assessed as increase in cell proliferation after 96 hrs by alamar blue assay; type: functional, cell-based
T47D [2] = assay: Antiestrogenic activity in human T47D cells assessed as compound concentration required to decrease 100 pM E2-induced cell proliferation to equivalent levels induced by 50 pM E2 after 96 hrs by alamar blue assay; type: functional
MCF7 [3] = assay: Antiestrogenic activity in human MCF7 cells assessed as compound concentration required to decrease 100 pM E2-induced cell proliferation to equivalent levels induced by 50 pM E2 after 96 hrs by alamar blue assay; type: functional
MCF7 [4] = assay: Antiestrogenic activity in human MCF7 cells assessed as compound concentration required to decrease 100 pM E2-induced cell proliferation to equivalent levels induced by 10 pM E2 after 96 hrs by alamar blue assay; type: functional
MCF7 [5] = assay: Antiestrogenic activity in human MCF7 cells assessed as inhibition of E2-induced cell proliferation up to 10 uM after 96 hrs by alamar blue assay relative to control; type: functional
MCF7 [6] = assay: Estrogen-like activity in human MCF7 cells assessed as increase in cell proliferation after 96 hrs by alamar blue assay; type: functional, cell-based
T47D [7] = assay: Antiestrogenic activity in human T47D cells assessed as compound concentration required to decrease 100 pM E2-induced cell proliferation to equivalent levels induced by 10 pM E2 after 96 hrs by alamar blue assay; type: functional
T47D [8] = assay: Antiestrogenic activity in human T47D cells assessed as compound concentration required to decrease 100 pM E2-induced cell proliferation to equivalent levels induced by 1 pM E2 after 96 hrs by alamar blue assay; type: functional
MCF7 [9] = assay: Antiestrogenic activity in human MCF7 cells assessed as compound concentration required to decrease 100 pM E2-induced cell proliferation to equivalent levels induced by 1 pM E2 after 96 hrs by alamar blue assay; type: functional
T47D [10] = assay: Antiestrogenic activity in human T47D cells assessed as inhibition of E2-induced cell proliferation up to 10 uM after 96 hrs by alamar blue assay relative to control; type: functional

Structure (SMILES) | Activity (Leishmania major) | Activity (T47D [1]) | Activity (T47D [2]) | Activity (MCF7 [3]) | Activity (MCF7 [4]) | inhibition (INH) (MCF7 [5]) | Activity (MCF7 [6]) | Activity (T47D [7]) | Activity (T47D [8]) | Activity (MCF7 [9]) | inhibition (INH) (T47D [10])
COc1cc([C@H]2OC[C@H]3[C@@H]2CO[C@@H]3c2cc(O)c(OC)c(OC)c2O[C@@H]2O[C@H](CO)[C@@H](O)[C@H](O)[C@H]2O)cc2c1OCO2 | inactive | inactive | 10 µM | <0.01 µM | <0.1 µM | >90% | inactive | – | – | – | –
COc1cc([C@H]2OC[C@H]3[C@@H]2CO[C@@H]3c2cc(OC)c(OC)c(OC)c2O[C@@H]2O[C@H](CO)[C@@H](O)[C@H](O)[C@H]2O)cc2c1OCO2 | inactive | inactive | – | <0.01 µM | – | – | inactive | – | – | – | –
CC/C(=C(\c1ccccc1)c1ccc(OCCN(C)C)cc1)c1ccccc1 [TAMOXIFEN] | – | – | 0.1 µM | 0.1 µM | 0.3 µM | – | – | 0.9 µM | 7 µM | 4.5 µM | –
COc1cc([C@@H]2OC[C@H]3[C@@H]2CO[C@@H]3c2cc(OC)c(OC)c(OC)c2O[C@@H]2O[C@H](CO)[C@@H](O)[C@H](O)[C@H]2O)c(O)c(OC)c1OC | inactive | inactive | <0.1 µM | <0.01 µM | <0.01 µM | >90% | inactive | – | – | – | –
COc1cc([C@H]2OC[C@H]3[C@@H]2CO[C@@H]3c2cc(OC)c3c(c2)OCO3)cc(O[C@@H]2O[C@H](CO)[C@@H](O)[C@H](O)[C@H]2O)c1OC | inactive | inactive | <0.01 µM | <0.01 µM | – | – | inactive | <0.01 µM | – | – | >90%
COc1cc([C@H]2OC[C@H]3[C@@H]2CO[C@@H]3c2ccc3c(c2)OCO3)c(O[C@@H]2O[C@H](CO)[C@@H](O)[C@H](O)[C@H]2O)c(OC)c1OC | inactive | inactive | <0.01 µM | <0.01 µM | <0.01 µM | – | inactive | <0.01 µM | – | 3.5 µM | >90%
COc1c(O)cc([C@@H]2OC[C@@H]3[C@H]2CO[C@H]3c2cc(O[C@@H]3O[C@H](CO)[C@@H](O)[C@H](O)[C@H]3O)c(OC)c(OC)c2OC)c(OC)c1OC | inactive | inactive | <0.01 µM | <0.01 µM | <0.1 µM | >90% | inactive | – | – | – | –
COc1cc([C@H]2OC[C@H]3[C@@H]2CO[C@@H]3c2cc(OC)c(OC)c(OC)c2O[C@@H]2O[C@H](CO)[C@@H](O)[C@H](O)[C@H]2O)cc(OC)c1OC | inactive | inactive | <0.01 µM | <0.01 µM | 9.8 µM | >50% | inactive | <0.01 µM | – | – | >90%
COc1c(O)cc([C@H]2OC[C@H]3[C@@H]2CO[C@@H]3c2ccc3c(c2)OCO3)c(O[C@@H]2O[C@H](CO)[C@@H](O)[C@H](O)[C@H]2O)c1OC | inactive | inactive | <0.01 µM | <0.01 µM | – | – | inactive | – | – | – | –
COc1cc([C@@H]2OC[C@@H]3[C@H]2CO[C@H]3c2cc(O)c(OC)c(OC)c2O[C@@H]2O[C@H](CO)[C@@H](O)[C@H](O)[C@H]2O)c(OC)c(OC)c1OC | inactive | inactive | <0.01 µM | <0.01 µM | – | – | inactive | – | – | – | –
COc1cc([C@H]2OC[C@H]3[C@@H]2CO[C@@H]3c2cc(OC)c(OC)c(OC)c2O[C@@H]2O[C@H](CO)[C@@H](O)[C@H](O)[C@H]2O)c(O)c(OC)c1OC | inactive | inactive | <0.01 µM | <0.01 µM | – | – | inactive | – | – | – | –
COc1c(O)cc([C@H]2OC[C@H]3[C@@H]2CO[C@@H]3c2cc3c(c(OC)c2OC)OCO3)c(O[C@@H]2O[C@H](CO)[C@@H](O)[C@H](O)[C@H]2O)c1OC | inactive | inactive | <0.01 µM | <0.01 µM | <0.01 µM | >90% | inactive | – | – | – | –
COc1cc([C@H]2OC[C@H]3[C@@H]2CO[C@H]3c2cc(OC)c(OC)c(OC)c2O[C@@H]2O[C@H](CO)[C@@H](O)[C@H](O)[C@H]2O)cc2c1OCO2 | inactive | inactive | 5.6 µM | <0.01 µM | 0.6 µM | >50% | inactive | – | – | – | –
COc1cc([C@@H]2OC[C@@H]3[C@H]2CO[C@H]3c2cc(O[C@@H]3O[C@H](CO)[C@@H](O)[C@H](O)[C@H]3O)c(OC)c(OC)c2OC)c(OC)c(OC)c1OC | inactive | inactive | <0.01 µM | <0.01 µM | – | – | inactive | 1 µM | – | – | >50%
